Measured values from article PMC3071374, “High Throughput Screens Yield Small Molecule Inhibitors of Leishmania CRK3:CYC6 Cyclin-Dependent Kinase” (PLoS Neglected Tropical Diseases, 2011).
Read-outs that look alike come from different tables or passages of the source.

Assays:
[1] = test system: WT promastigote L. major; experiment: L. major promastigote growth inhibition assay (resazurin); type: cell-based; details: for inhibition of parasite growth in culture (in words): promastigotes and intra-macrophage amastigotes in culture; for IC50: 5 days at 25°C, read-out: IC50 against WT promastigote L. major
Protocol: L. major wild type promastigotes (Friedlin strain: WHO designation MHOM/JL/81/Friedlin) were grown at 25°C in HOMEM medium (Invitrogen cat no. 041-94699111) supplemented with 10% (v/v) heat inactivated foetal calf serum (HIFCS) and 1% (v/v) penicillin/streptomycin antibiotics.
CRK3 inhibitors were diluted into HOMEM medium supplemented with 10% HIFCS at twice the final screening concentration. Five-fold or ten-fold serial dilutions were carried out into HOMEM medium supplemented with 10% HIFCS. 100 µl of each drug concentration were added to a 96 well plate in duplicate. 100 µl of five-fold or ten-fold serial dilutions of 1 mM Pentamidine (Sigma) and an equivalent volume of 100% DMSO were included as positive and negative controls, in duplicate, respectively. L. major promastigote cells were diluted to a cell density of 2×10^6 cells ml^−1 in HOMEM media supplemented with 10% HIFCS and 100 µl added to all wells in 96 well plates. Plates were sealed with parafilm and incubated for 5 days at 25°C. After 5 days, 20 µl of filter sterile resazurin solution (12.5 mg resazurin salt in 100 ml PBS) (Sigma) was added to each of the wells and the plate incubated for a further 24 hours at 25°C. Fluorescence was measured using an Envision plate reader (Perkin Elmer) at 540 nm excitation wavelength and 590 nm emission wavelength.

[2] = molecular target: Leishmania CRK3:CYC6 (Leishmania major, UniProt O96526); type: biochemical
Sequence of Leishmania CRK3:CYC6 (Q4Q4U0 entry or part of it): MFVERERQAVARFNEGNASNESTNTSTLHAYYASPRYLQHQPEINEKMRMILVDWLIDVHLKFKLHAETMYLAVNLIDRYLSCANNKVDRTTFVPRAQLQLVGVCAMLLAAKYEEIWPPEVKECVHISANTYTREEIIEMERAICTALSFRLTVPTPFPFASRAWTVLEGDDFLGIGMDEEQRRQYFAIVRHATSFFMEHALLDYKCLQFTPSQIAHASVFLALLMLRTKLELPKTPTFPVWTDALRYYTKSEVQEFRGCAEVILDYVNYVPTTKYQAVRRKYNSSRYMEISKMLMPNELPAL
Sequence of Leishmania CRK3:CYC6 (O96526 entry or part of it): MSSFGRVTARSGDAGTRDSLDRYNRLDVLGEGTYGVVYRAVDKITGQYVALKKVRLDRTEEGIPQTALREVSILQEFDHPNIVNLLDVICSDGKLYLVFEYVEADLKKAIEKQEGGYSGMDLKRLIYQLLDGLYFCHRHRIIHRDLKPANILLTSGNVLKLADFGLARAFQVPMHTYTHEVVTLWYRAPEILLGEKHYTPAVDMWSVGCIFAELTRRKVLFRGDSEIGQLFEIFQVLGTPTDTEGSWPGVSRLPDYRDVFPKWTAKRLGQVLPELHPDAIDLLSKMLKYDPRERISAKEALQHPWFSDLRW
Protocol: (§1) Leishmania CRK3:CYC6 protein kinase assays were performed in 96-well microtiter plates in a final volume of 25 µl. Each assay point contained 7.5 ng of co-expressed histidine-tagged CRK3:CYC6 protein kinase complex (hereafter referred to as CRK3:CYC6) diluted in enzyme dilution buffer (EDB) (20 mM Tris-HCl pH 7.2, 0.5 mg ml^−1 BSA, 2.5% glycerol and 0.006% Brij-35). Assays were performed using the assay development buffer (ADB) (20 mM MOPS, pH 7.0, 25 mM β-glycerophosphate, 5 mM EGTA, 1 mM NaVO3, 1 mM DTT and 15 mM MgCl2) supplemented with 100 µM ATP, 0.5 µCi of γ-^32P ATP per reaction and histone H1 as a substrate used at 0.4 mg ml^−1. Two and three-fold titrations were set up to determine the concentration of enzyme to be used per assay point (7.5 ng) and to determine the concentrations of selected inhibitors required for 50% inhibition of Leishmania CRK3:CYC6 protein kinase activity (IC50 values), respectively. For IC50 determinations, assay mixes contained DMSO to a final concentration of 2%. Mammalian protein kinase assays were carried out according to the assay protocols developed at Cyclacel. Assays were carried out for 30 minutes at 30°C before stopping the reaction by the addition of an equal volume (25 µl) of 75 mM orthophosphoric acid. Samples were spotted onto a p81 cellulose filterplate (Nunc) and a vacuum applied. Wells were washed 3×200 µl with 75 mM phosphoric acid and the bottom of the plate sealed. 50 µl of Microscint 40 (Perkin Elmer) was added per well before incorporation of radioactivity was determined on a Topcount microplate scintillation counter.

[3] = test system: WT amastigote L. major; experiment: Intra-macrophage L. major amastigote assay; type: cell-based; details: infected peritoneal macrophages; for IC50: read-out: IC50 against WT amastigote L. major
Protocol: Macrophages were harvested from the peritoneum of Balb/C mice, centrifuged at 1000× g for 10 minutes at 4°C and resuspended in fresh RPMI 1640 media supplemented with 10% HIFCS and 1% (v/v) Gentamicin, as described previously. Macrophages were diluted to a cell density of 5×10^5 cells ml^-1 in RPMI supplemented with 10% HIFCS and 100 μl were added to each well of a 16-well Lab-tek cavity slide (50,000 mφ/well) and incubated at 37°C, 5% CO2 for subsequent experiments. […] Inhibitors were set up in a five-fold dilution series in RPMI 1640 medium supplemented with 10% […] of inhibitor were added to the wells in serial dilution and slides incubated for 72 hours at 37°C with 5% CO2. After 72 hours the medium was removed and replaced with fresh medium containing the same concentrations of inhibitors and incubated for a further 48 hours at 37°C with 5% CO2. At the end of the incubation period, the medium was removed, the slides were washed twice with fresh RPMI 1640 medium supplemented with 10% HIFCS then fixed with 100% methanol and stained with 10% Giemsa's stain for 10 minutes. The percentage of infected macrophages and number of amastigotes per macrophage were determined by light microscopy under oil immersion.

[4] = molecular target: CDK4:CYCD1 (Homo sapiens, UniProt P11802); experiment: Mammalian protein kinase assay, CDK4:CYCD1; type: biochemical; details: Lexicon azapurine HTS hits
Sequence of CDK4:CYCD1 (P11802 whole entry): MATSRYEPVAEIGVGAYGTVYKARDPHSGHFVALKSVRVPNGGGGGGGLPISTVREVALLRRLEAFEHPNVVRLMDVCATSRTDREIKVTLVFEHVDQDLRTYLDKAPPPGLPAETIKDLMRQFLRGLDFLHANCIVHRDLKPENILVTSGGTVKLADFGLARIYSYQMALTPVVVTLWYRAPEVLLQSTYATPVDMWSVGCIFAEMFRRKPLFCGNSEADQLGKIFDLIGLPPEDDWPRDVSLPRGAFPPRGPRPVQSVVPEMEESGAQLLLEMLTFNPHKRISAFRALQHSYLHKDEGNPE
Sequence of CDK4:CYCD1 (P24385 whole entry partner): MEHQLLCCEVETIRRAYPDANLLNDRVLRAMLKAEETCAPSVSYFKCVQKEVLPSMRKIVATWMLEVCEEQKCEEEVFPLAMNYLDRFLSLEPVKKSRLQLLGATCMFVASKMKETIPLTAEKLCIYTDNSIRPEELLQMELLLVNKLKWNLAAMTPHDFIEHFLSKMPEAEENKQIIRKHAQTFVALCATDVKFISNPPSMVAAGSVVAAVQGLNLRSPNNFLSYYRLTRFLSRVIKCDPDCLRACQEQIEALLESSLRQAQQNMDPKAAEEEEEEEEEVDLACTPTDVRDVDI
Protocol: as §1

[5] = molecular target: human CDK2:CycA (Homo sapiens, UniProt P24941); experiment: Mammalian protein kinase assay / counter screen, CDK2:CYCA; type: biochemical; details: BioFocus SFK48 HTS hits, re-screen
Protocol: as §1

[6] = synthesised azapurine derivatives
[7] = Lexicon azapurine HTS hits, maximum concentration tested 10 µM
[8] = re-synthesised Lexicon azapurine hits
[9] = BioFocus SFK48 HTS hits, rescreen

Row | SMILES | IC50 [2, 6] [µM] | activity towards promastigote L. major (in words) [1] | IC50 [1, 6] [µM] | IC50 ([2]; Lexicon azapurine HTS hits) [µM] | IC50 [4] [µM] | further results
1 | COc1ccc(-n2nnc3c(NCCN4CCOCC4)nc(CC4CCCCC4)nc32)cc1 [Compound 28] | > 50 | showed a range of activity | 8.3 | – | – | inhibition of parasite growth in culture (in words) [1]: inhibited parasite growth in culture; inhibition of CRK3/CYC6 in vitro (in words) [2]: did not inhibit; IC50 [3, 6]: 5 to 15 µM
2 | COc1ccc(-n2nnc3c(NCC(C)O)nc(CC4CCCCC4)nc32)cc1 (centres unmarked) [Compound 3] | – | – | – | 4.4 | 21.9 | IC50 [1, 7]: > 10 µM; IC50 [2, 8]: 24.2 µM; IC50 ([3]; Lexicon azapurine HTS hits): > 50 µM
3 | COc1ccc(-n2nnc3c(NC(C)C)nc(CC4CCCCC4)nc32)cc1 [Compound 9] | – | – | – | 8.8 | 19.8 | IC50 [2, 8]: 37.9 µM
4 | COc1ccc(Cn2nnc3c(N4CCCC(O)C4)nc(CC4CCCCC4)nc32)cc1 (racemic) [Compound 19] | > 50 | showed a range of activity | 5 to 50 | – | – | –
5 | Cc1ccccc1NC(=O)Nc1nc(C(N)c2ccccc2Cl)cs1 (centres unmarked) [Compound 41] | – | – | – | – | – | IC50 ([1]; BioFocus SFK48 HTS hits): 26.1 µM; IC50 [2, 9]: 9 µM; IC50 [5]: > 20 µM
6 | COc1ccc(CC(N)c2csc(NC(=O)Nc3ccccc3Oc3ccccc3)n2)cc1 (centres unmarked) [Compound 38] | – | – | – | – | – | IC50 ([1]; BioFocus SFK48 HTS hits): 3.3 µM; IC50 [2, 9]: 5 µM; IC50 [5]: > 20 µM
7 | COc1ccc(-n2nnc3c(NCCN4CCOCC4)nc(Cc4ccccc4)nc32)cc1 [Compound 30] | > 100 | showed a range of activity | 3.8 | – | – | inhibition of parasite growth in culture (in words) [1]: inhibited parasite growth in culture; activity against amastigotes (in words) [3, 6]: Activity observed at 10 μM
8 | COc1ccc(-n2nnc3c(NC(CO)CC(C)C)nc(CC4CCCCC4)nc32)cc1 (centres unmarked) [Compound 12] | – | – | – | 10.7 | 4.6 | –
9 | CCC(CC)Nc1nc(CC2CCCCC2)nc2c1nnn2-c1ccc(OC)cc1 [Compound 8] | – | – | – | 8.1 | 26.9 | –
10 | OC1CCCN(c2nc(CC3CCCCC3)nc3c2nnn3Cc2ccc(F)cc2)C1 (racemic) [Compound 33] | 47.6 | – | > 50 | – | – | IC50 [3, 6]: > 50 µM
11 | CCCN(c1nc(CC2CCCCC2)nc2c1nnn2-c1ccc(OC)cc1)C1CCCC1N(C)C (centres unmarked) [Compound 2] | – | did not have activity | – | 3.4 | 5.6 | IC50 [1, 7]: > 10 µM; IC50 ([3]; Lexicon azapurine HTS hits): 38.4 µM
12 | NC(c1ccccc1)c1csc(NC(=O)Nc2ccc(OC(F)(F)F)cc2)n1 (centres unmarked) [Compound 42] | – | – | – | – | – | IC50 ([1]; BioFocus SFK48 HTS hits): 6.9 µM; IC50 [2, 9]: 10 µM; IC50 [5]: > 20 µM

Second part, led by results:

Row | IC50 [2, 6] [µM] | SMILES | activity towards promastigote L. major (in words) [1] | IC50 [1, 6] [µM] | IC50 ([2]; Lexicon azapurine HTS hits) [µM] | IC50 [4] [µM] | further results
13 | > 100 | COc1ccc(-n2nnc3c(NCC(C)O)nc(Cc4ccccc4)nc32)cc1 (centres unmarked) [Compound 32] | – | > 50 | – | – | IC50 [3, 6]: > 25 µM
14 | > 100 | COc1ccc(-n2nnc3c(N4CCCC(O)C4)nc(Cc4ccccc4)nc32)cc1 (racemic) [Compound 29] | showed a range of activity | 38.7 | – | – | inhibition of parasite growth in culture (in words) [1]: inhibited parasite growth in culture; inhibition of CRK3/CYC6 in vitro (in words) [2]: did not inhibit; activity against amastigotes (in words) [3, 6]: Activity observed at 25 μM
15 | > 20 | COc1ccc(-n2nnc3c(N4CCCC(CO)C4)nc(Cc4ccccc4)nc32)cc1 (centres unmarked) [Compound 31] | showed a range of activity | 40 | – | – | activity against amastigotes (in words) [3, 6]: Activity observed at 25 μM
